Here are results for one molecule from patent US20220000957A1, “COMPOSITION FOR ALLEVIATING SYMPTOMS OF ANDROPAUSE, CONTAINING EXTRACT OF FICUS AURICULATA LOUR. AS ACTIVE INGREDIENT” (KOREA RESEARCH INSTITUTE OF BIOSCiENCE AND BIOTECHNOLOGY, priority 2018, published 2022).

Molecules are shown by their SMILES. “And” between values parts separate entries of the source, which are not always exact repeats. Equal entries are not always repeated.

The test system of assay [1] is prostate-specific antigen (PSA). Put plainly: Inhibition of testosterone-induced prostate-specific antigen (PSA) expression in LNCaP cells, real-time RT-PCR. Format: cell-based. The conditions noted are these: testosterone 100 nM, 24 hours, no extract. The method, then:
Reverse transcription-real-time polymerase chain reaction (real-time RT-PCR) was used to measure the inhibition of expression of prostate-specific antigen (PSA) in testosterone-induced prostate cancer cell lines (LNCaP cells). Specifically, the prostate cancer cell line (LNCaP cells) was dispensed to a 6 well plate at 5×10^5 cells/well. After incubating for 24 hours in an incubator under conditions of 37° C. and 5% CO2, Ficus auriculata Lour. fruit extract of each country of origin (Vietnam, Nepal, Myanmar, Bangladesh, China, Laos) was added at 100 μg/ml and incubated for 3 hours. Testosterone 100 nM was added to each well except for the control and incubated for 24 hours. After incubation for 24 hours, the supernatant was removed, total RNA was extracted using Trizol, and cDNA was synthesized using PrimeScript RT Master Mix (Takara, Japan). The synthesized cDNA was subjected to real-time polymerase chain reaction using TOPreal qPCR 2×PreMIX (Enzynomics, Korea).
Reverse transcription-real-time polymerase chain reaction (real-time RT-PCR) was used to measure the inhibition of expression of prostate-specific antigen (PSA) in testosterone-induced prostate cancer cell lines (LNCaP cells). Specifically, the prostate cancer cell line (LNCaP cells) was dispensed to a 6 well plate at 5×10^5 cells/well. […]

For a further assay, the system named is androgen receptor (AR). Put plainly: Androgen receptor (AR) expression in LNCaP cells, real-time RT-PCR. Conditions: no extract. Format: cell-based. On the technique in general: Quantitative PCR measures a nucleic acid by following its amplification.

For the molecule `C[C@]12CC[C@H]3[C@@H](CCC4=CC(=O)CC[C@@]43C)[C@@H]1CC[C@@H]2O` [testosterone], the “PSA expression increased by testosterone” value in assay [1] is 190% and 180%. Moreover, the “expression of AR increased by testosterone” value in the assay on androgen receptor (AR) stood at 140%.
